According to patent US20180028690A1, “INDOCYANINE GREEN FORMULATIONS AND METHODS FOR IMAGING OF THE URINARY PATHWAYS” (Yissum Reseach Development Company of the Herbrew …, priority 2015, published 2018):
Values joined by “and” are separate entries in the source; they are usually repeats but may differ in a detail not shown here. Identical values can stand only once.

Columns and labels:
[1] = Stability of ICG absorption at light and at dark over time; type: physicochemical; settings: aqueous solution or adsorbed to liposomes
Protocol: The red shift is accompanied with quenching of fluorescence, i.e., the larger the red shift the lower the fluorescence intensity. Because the fluorescence intensity of ICG-liposomes was greater than that of unbound ICG molecules (aqueous solution), the quantum yield ratio between the two states in which ICG is present was determined, for a concentration of 1.28×10^−3 mM. ICG is poorly stable in aqueous solutions due to degradation, and therefore, in order to evaluate the stability of the ICG-adsorbed liposomes, the absorption of this fluorescent probe, when dissolved in an aqueous solution or adsorbed to the liposomes, was measured at light and at dark over time.

[2] = Ureter imaging with ICG-HPβCD inclusion complex vs free ICG (Typhoon imager); type: in vivo, female FVB mice; settings: 8 mg/kg ICG, 10 min post injection
Protocol: 60 mg of ICG (Acros) was solubilized in 12.5 ml of DDW. 2 ml of ICG solution were added to 10 ml of phosphate buffer (pH 7, 2 mM, and sucrose 9.3% w/w). 18.5 mg of HPβCD (Acros) were added to ICG buffered solution and mixed for 10 h at 4° C. […] Mice were sacrificed 10 min post injection and imaged by Typhoon imager (General Electric).

[3] = Fluorescence spectra and relative quantum yield of ICG-adsorbed liposomes vs ICG in aqueous solution; type: physicochemical
Protocol: The fluorescence spectra of the ICG-adsorbed liposomes prepared were evaluated in comparison to those of ICG in aqueous solution.
The relative quantum yield was calculated according to the following equation (Fery-Forgues and Lavabre, 1999):
where φ is the quantum yield, F is the area under the emission peak (expressed in number of photons), A is absorbance at the excitation wavelength, and n is the refractive index of the solvents. The subscript x denotes the respective values of the sample (liposome-ICG), and s denotes standard (free ICG in buffer).

[4] = literature (Bax 1980; Cherrick 1960); cited from earlier work
[5] = Imaging of surgically exposed kidneys and ureters after midline laparotomy; type: in vivo, Female FVB mice; settings: P<0.01
Protocol: An additional cohort of animals was used for further studies of the accumulation of liposomal ICG in the urinary system. Liposomal or free ICG was injected into the tail vein, and 3 min later, mice were treated with high dose pentobarbital administered intraperitoneally. Overall time of active circulation after the ICG injection was about 10 min. Thereafter, mice were subjected to midline laparotomy with full exposure of the retroperitoneum. The ureters were identified in their origin from the kidneys, and distally clipped or loosely tied for identification. The mice were also hysterectomyzed to ease the urinary bladder identification. Subsequently, the animals were scanned by the Typhoon FLA 9500 biomolecular imager. Each experiment was repeated at least three times.

[6] = Whole body NIR imaging (IVIS Kinetic) after intravenous injection; type: in vivo, Female FVB mice
Protocol: Mice were shaved under isoflurane (1-2%, v/v) anesthesia and underwent baseline scans using an IVIS Kinetic® in vivo imaging system (Caliper Life Sciences, Hopkinton, Mass., USA). Two hundred μl of 8 mg/kg Phospholipon® 50 ICG liposomes or the free compound in 2 mM sucrose buffer (phosphate buffer pH 7, with 9.3% w/w sucrose) were injected into the tail vein and the mice were repetitively scanned over a time period of up to 120 min.
Analysis of in vivo ICG pharmacokinetics (PK), including region of interest (ROI) placement (Living Image; PerkinElmer, Waltham, Mass., USA; (Schneider et al., 2012)) and calculation of the area under the concentration-time curve (AUC) from the time of injection to the time of the last measurement (Phoenix WinNonlin; Certara; St. Louis, Mo., USA), was conducted as previously described (Portnoy et al., 2012). Partial areas were calculated for the AUC between the time of ICG injection (0 min) and 60 or 120 min after injection (AUC0-60 min and AUC0-120 mm, respectively). Data are presented as means±SD. The non-parametric Mann-Whitney or Kruskal-Wallis tests, as appropriate, were used to determine the statistical significance of difference (p<0.05) between experimental groups (InStat; GraphPad, La Jolla, Calif., USA).

- renal excretion [2]: negligibly excreted in the urine
- ICG emission peak in water, shift ([3]; concentrations above 6.4×10^−3 mM): up to 814 nm
- ICG emission peak in water ([3]; concentrations less than 6.4×10^−3 mM): 805 nm
- urinary bladder/feet AUC0-60 min ratio of emission intensity ([6]; 8 mg/kg ICG i.v., feet-normalized AUC, 0-60 min): 2.3±0.5
- urinary bladder/feet AUC0-120 min ratio of emission intensity ([6]; 8 mg/kg ICG i.v., feet-normalized AUC, 0-120 min): 2.3±0.4
- emission intensity AUC of the urinary bladder relative to that of the feet ([6]; control mice, 8 mg/kg i.v.): 2.3 fold
Structure (SMILES): CC1(C)C(/C=C/C=C/C=C/C=C2\N(CCCCS(=O)(=O)O)c3ccc4ccccc4c3C2(C)C)=[N+](CCCCS(=O)(=O)[O-])c2ccc3ccccc3c21 [free ICG, indocyanine green]
- absorption over time at light and at dark (stability) [1]: decreases over time both in light and in dark
- labelling of ureters [2]: did not
- half life in plasma [4]: in the minutes range
- renal elimination after systemic administration [4]: negligible
- ureteral emission normalized to renal emission (ureters/kidneys ratio) [5]: 0.56±0.10 and 0.5
